Columns and labels:
Format in all cases: binding
panel of 442 kinases [1] = target: T1, panel of 442 kinases (Homo sapiens, UniProt P21127); settings: Compound Concentration 10 µM
T1 construct: purchased KINOMEscan
From the text: (§1) We assessed the selectivity of members of this scaffold using the KINOMEscan methodology across a near comprehensive panel of 442 kinases [[18,27]].

panel of 442 kinases [2] = target: T2, panel of 442 kinases (Homo sapiens, UniProt Q04771); settings: Compound Concentration 10 µM
T2 construct: purchased KINOMEscan
T2 sequence (Q04771 21-509): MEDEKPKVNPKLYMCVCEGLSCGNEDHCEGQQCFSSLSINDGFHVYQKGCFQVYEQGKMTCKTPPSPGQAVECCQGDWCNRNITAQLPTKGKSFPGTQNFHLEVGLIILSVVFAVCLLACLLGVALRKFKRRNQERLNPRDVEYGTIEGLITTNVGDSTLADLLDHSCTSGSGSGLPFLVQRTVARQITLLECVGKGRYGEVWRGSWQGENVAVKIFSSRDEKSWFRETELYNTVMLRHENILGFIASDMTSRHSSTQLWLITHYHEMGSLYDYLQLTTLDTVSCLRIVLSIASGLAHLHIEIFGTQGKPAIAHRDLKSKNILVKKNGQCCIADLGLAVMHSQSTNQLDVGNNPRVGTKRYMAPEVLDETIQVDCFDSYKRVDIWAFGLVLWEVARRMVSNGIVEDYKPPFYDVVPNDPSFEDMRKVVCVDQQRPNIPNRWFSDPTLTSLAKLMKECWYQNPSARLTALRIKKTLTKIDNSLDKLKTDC
From the text: as §1

panel of 442 kinases [3] = target: T3, panel of 442 kinases (Homo sapiens, UniProt Q8TDR2); settings: kinase STK35; compound concentration 10 µM
T3 construct: purchased KINOMEscan
T3 sequence (Q8TDR2 whole entry): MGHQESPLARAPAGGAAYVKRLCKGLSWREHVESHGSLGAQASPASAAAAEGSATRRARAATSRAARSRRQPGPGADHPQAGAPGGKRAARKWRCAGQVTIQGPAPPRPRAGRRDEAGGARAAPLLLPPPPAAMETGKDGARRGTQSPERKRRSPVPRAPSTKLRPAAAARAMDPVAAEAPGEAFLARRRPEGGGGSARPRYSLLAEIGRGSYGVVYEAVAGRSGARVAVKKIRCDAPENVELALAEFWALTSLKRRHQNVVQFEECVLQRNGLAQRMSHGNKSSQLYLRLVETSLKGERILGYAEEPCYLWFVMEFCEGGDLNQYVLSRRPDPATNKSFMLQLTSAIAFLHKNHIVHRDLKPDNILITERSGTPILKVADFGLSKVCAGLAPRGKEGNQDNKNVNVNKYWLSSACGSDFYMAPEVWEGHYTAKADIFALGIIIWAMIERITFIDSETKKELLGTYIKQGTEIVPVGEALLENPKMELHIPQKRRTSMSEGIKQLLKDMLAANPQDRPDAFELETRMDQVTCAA
From the text: as §1

T1 sequence (P21127 whole entry): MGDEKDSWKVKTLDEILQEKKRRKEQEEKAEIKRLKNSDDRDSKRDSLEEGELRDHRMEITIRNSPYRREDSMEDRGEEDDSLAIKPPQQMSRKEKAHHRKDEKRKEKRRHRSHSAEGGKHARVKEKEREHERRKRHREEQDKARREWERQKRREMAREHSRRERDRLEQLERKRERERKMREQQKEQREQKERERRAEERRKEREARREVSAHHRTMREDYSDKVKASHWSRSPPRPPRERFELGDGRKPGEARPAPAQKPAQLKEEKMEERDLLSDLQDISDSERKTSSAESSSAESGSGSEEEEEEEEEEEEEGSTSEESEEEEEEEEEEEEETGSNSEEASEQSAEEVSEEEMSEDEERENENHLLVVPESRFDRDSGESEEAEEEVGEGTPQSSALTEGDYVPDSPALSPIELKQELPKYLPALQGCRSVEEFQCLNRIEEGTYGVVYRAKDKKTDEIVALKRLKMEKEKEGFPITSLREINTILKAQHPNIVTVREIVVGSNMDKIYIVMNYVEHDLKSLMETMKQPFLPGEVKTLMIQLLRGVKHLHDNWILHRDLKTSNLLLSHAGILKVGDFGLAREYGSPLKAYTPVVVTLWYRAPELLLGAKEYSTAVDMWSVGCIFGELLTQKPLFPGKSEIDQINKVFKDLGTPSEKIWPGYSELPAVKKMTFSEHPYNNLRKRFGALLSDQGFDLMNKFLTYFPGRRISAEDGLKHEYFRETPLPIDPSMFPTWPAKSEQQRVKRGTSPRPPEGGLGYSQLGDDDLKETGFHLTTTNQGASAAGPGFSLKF

Structure (SMILES) | KINOMEscan: CDC2L1 (panel of 442 kinases [1]) | KINOMEscan: ACVR1 (panel of 442 kinases [2]) | % Ctrl, STK35 (panel of 442 kinases [3]) [% Ctrl]
COc1cc(C(=O)N2CCC(N3CCN(C)CC3)CC2)ccc1Nc1ncc2c(n1)N(C1CCCC1)c1ccccc1C(=O)N2C [Compound 25, 11-cyclopentyl-2-((2-methoxy-4-(4-(4-methylpiperazin-1-yl)piperidine-1-carbonyl)phenyl)amino)-5-methyl-5H-benzo[e]pyrimido[5,4-b][1,4]diazepin-6(11H)-one] | 81 | 100 | 100
CCOc1cc(C(=O)N2CCC(N3CCN(C)CC3)CC2)ccc1Nc1ncc2c(n1)N(C1CCCC1)c1ccccc1C(=O)N2C [Compound 26] | 100 | 100 | 96
COc1cc(C(=O)N2CCC(N3CCN(C)CC3)CC2)ccc1Nc1ncc2c(n1)N1CCc3cccc(c31)C(=O)N2C [Compound 24] | – | – | 100
COc1cc(C(=O)N2CCC(N3CCN(C)CC3)CC2)ccc1Nc1ncc2c(n1)N(C)c1ccccc1C(=O)N2C [15 (LRRK2-IN-1)] | 84 | 98 | 100
